Tested on: il1b
Test: qPCR il1b expression in zebrafish larvae
Assay type: in vivo, zebrafish (Danio rerio)
Conditions: for il1b expression after wounding: 10 μM beclomethasone, 50 μM Rg1 or combination, 4 h after wounding
Experimental: To determine levels of gene expression in zebrafish larvae, 3 dpf larvae were used in both wounded and non-wounded conditions, and after short- and long-term treatments. Groups of 15 larvae were collected in TRIzol reagent (ThermoFisher) and total RNA was isolated using miRNeasy mini kit (Qiagen, Hilden, Germany). For experiments in HeLa cells, cells were seeded in 6 well plates and after treatment, the cells were removed from the wells using TRIzol reagent and mRNA was isolated using miRNeasy mini kit (Qiagen) according to the manufacturer's instructions. The RNA samples were DNAse-treated utilizing the DNA-free™ DNA Removal Kit (ThermoFisher Scientific). The cDNA synthesis was performed using the iScript cDNA synthesis kit (Bio-Rad Laboratories, Hercules, CA, USA) using 1 μg of RNA per sample. For qPCR, 10 μM of forward primer and 10 μM of reverse primer, 12.5 μl of IQ SYBR Green Supermix (Bio-Rad Laboratories), and 2 μl of cDNA were added to the qPCR reaction mixture. […] The qPCR reactions were performed on a MyiQ-single-color real-time PCR detection system (Bio-Rad Laboratories), with initial denaturation for 3 min, 95° C., and 40 cycles of 15 s at 95.5° C., 15 s at 60° C., and 30 s at 72° C. Cycle threshold values (Ct values, i.e. the cycle numbers at which a threshold value of the fluorescence intensity was reached) were determined for each sample. […] The fold change per sample (compared to the respective control group) was calculated using the […]Ct method.
To determine mRNA levels of specific genes in zebrafish, 3 dpf larvae were used (wounded and non-wounded) and after 6 h of chemical treatments (2 h pre-wounding, 4 h post-wounding), as indicated. […] Cycle threshold values (Ct values, i.e. the cycle numbers at which a threshold value of the fluorescence intensity was reached) were determined for each sample. […] The fold change per sample (compared to the respective control group) was calculated using the ΔΔCt method.

Row | Structure (SMILES) | il1b expression after wounding | il1b expression (Example 2, wounded larvae)
1 | C[C@H]1C[C@H]2[C@@H]3CCC4=CC(=O)C=C[C@]4(C)[C@@]3(Cl)[C@@H](O)C[C@]2(C)[C@@]1(O)C(=O)CO [beclomethasone, reference compound] | slightly decreased the expression of these genes | suppressed the expression levels of il1b, il6 and mmp9, similarly to Bec
2 | CC(C)=CCC[C@](C)(O[C@@H]1O[C@H](CO)[C@@H](O)[C@H](O)[C@H]1O)[C@H]1CC[C@]2(C)[C@@H]1[C@H](O)C[C@@H]1[C@@]3(C)CC[C@H](O)C(C)(C)[C@@H]3[C@@H](O[C@@H]3O[C@H](CO)[C@@H](O)[C@H](O)[C@H]3O)C[C@]12C [Rg1, (3β,6α, 12β)-3,12-Dihydroxydammar-24-ene-6,20-diyl bis-β-D-glucopyranoside] | slightly decreased the expression of these genes | 
